# Data reported in patent publication US20100298141A1, “SUBSTITUTED PYRIDINE N-OXIDE HERBICIDES” (E. I. DU PONT DE NEMOURS AND COMPANY, priority 2007, published 2010).
# What was measured:
# mustard = assay: Test F preemergence test; assay type: in vivo, Brassica nigra; details: scale 0 to 100
# Outline: (§1)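 Compounds in a non-phytotoxic solvent formulation with surfactant were applied before emergence after sowing, or, for sugarcane, also postemergence. Evaluation was visual, against controls, after 14 to 21 greenhouse days.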
# blackgrass = assay: Test C pre-/postemergence test; assay type: in vivo, Alopecurus myosuroides; details: for Plant response rating, Blackgrass: 31 g ai/ha, scale 0 to 100 (0 no effect, 100 complete control)
# Outline: (§2)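 Seeds were planted and treated preemergence with test chemical in a non-phytotoxic solvent mixture containing surfactant. Postemergence applications of the same formulation went onto plants 2 to 18 cm tall (1- to 4-leaf stage). A dash marks no test result.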
# prickly sida = assay: Test F preemergence test; assay type: in vivo, Sida spinosa; details: scale 0 to 100
# Outline: as §1
# Surinam grass = assay: Test F preemergence test; assay type: in vivo, Brachiaria decumbens; details: scale 0 to 100; for Surinam Grass plant response rating: 125 g ai/ha
# Outline: as §1
# quackgrass = assay: Test F preemergence test; assay type: in vivo, Elytrigia repens; details: scale 0 to 100
# Outline: as §1
# Virginia dayflower = assay: Test F preemergence test; assay type: in vivo, Commelina virginica; details: scale 0 to 100
# Outline: as §1
# green foxtail = assay: Test C pre-/postemergence test; assay type: in vivo, Setaria viridis; details: for Plant response rating, Foxtail, Green: 31 g ai/ha, scale 0 to 100 (0 no effect, 100 complete control)
# Outline: as §2
# dallisgrass = assay: Test F preemergence test; assay type: in vivo, Paspalum dilatatum; details: scale 0 to 100
# Outline: as §1
# corn = assay: Test A pre-/postemergence greenhouse test; assay type: in vivo, Zea mays; details: for Plant response rating, Corn: 0 to 100 scale where 0 is no effect and 100 is complete control; for Corn plant response rating: 0 to 100 scale
# Outline: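 Test compounds in non-phytotoxic solvent with surfactant were applied as a preemergence soil spray to seeded loam/sand pots and, concurrently, postemergence to plants at 2–10 cm, one- to two-leaf stage. About ten days in greenhouse, then injury visually rated against untreated controls.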
# bermudagrass = assay: Test F preemergence test; assay type: in vivo, Cynodon dactylon; details: scale 0 to 100
# Outline: as §1
# broadleaf signalgrass = assay: Test F preemergence test; assay type: in vivo, Brachiaria platyphylla; details: scale 0 to 100; for Signalgrass plant response rating: 125 g ai/ha
# Outline: as §1
# common mallow = assay: Test F preemergence test; assay type: in vivo, Malva sylvestris; details: scale 0 to 100
# Outline: as §1
# common ragweed = assay: Test C pre-/postemergence test; assay type: in vivo, Ambrosia elation; details: for Plant response rating, Ragweed: 31 g ai/ha, scale 0 to 100 (0 no effect, 100 complete control)
# Outline: as §2
# kochia = assay: Test F preemergence test; assay type: in vivo, Kochia scoparia; details: scale 0 to 100
# Outline: as §1
# [1] = 62 g ai/ha, Preemergence, scale 0 to 100
# [2] = 125 g ai/ha, preemergence, scale 0 (no effect) to 100 (complete control)
# [3] = preemergence, 250 g ai/ha, scale 0 (no effect) to 100 (complete control)
# [4] = Postemergence, 500 g ai/ha, 0 is no effect, 100 is complete control
# [5] = Preemergence, 125 g ai/ha, 0 no effect, 100 complete control
structure (smiles),measurement,setting,value
CC(Oc1c(C[S+]([O-])c2cccc[n+]2[O-])c(C(F)(F)F)nn1C)C(F)(F)F (stereo not drawn) [Compound 77],"Plant response rating, Black Mustard","mustard; 16 g ai/ha, preemergence",0
same,Black Mustard plant response rating,"mustard; 62 g ai/ha, Preemergence",65
same,Black Mustard plant response rating,"mustard; 125 g ai/ha, preemergence",100
same,"Plant response rating, Black Mustard","mustard; Preemergence, 31 g ai/ha",20
same,Blackgrass plant response rating,blackgrass; [1],100
same,Blackgrass plant response rating,blackgrass; [2],100
same,"Plant response rating, Blackgrass",blackgrass; Preemergence,100
same,Blackgrass plant response rating,blackgrass; [3],100
same,"Plant response rating, Prickly Sida","prickly sida; 16 g ai/ha, preemergence",20
same,Prickly Sida plant response rating,"prickly sida; 62 g ai/ha, Preemergence",80
same,Prickly Sida plant response rating,"prickly sida; 125 g ai/ha, preemergence",80
same,"Plant response rating, Prickly Sida","prickly sida; Preemergence, 31 g ai/ha",30
same,"Plant response rating, Surinam Grass","Surinam grass; 16 g ai/ha, preemergence",0
same,Surinam Grass plant response rating,Surinam grass; preemergence,98
same,"Plant response rating, Surinam Grass","Surinam grass; Preemergence, 62 g ai/ha",95
same,"Plant response rating, Surinam Grass","Surinam grass; Preemergence, 31 g ai/ha",70
same,"Plant response rating, Quackgrass","quackgrass; 16 g ai/ha, preemergence",0
same,Quackgrass plant response rating,"quackgrass; 62 g ai/ha, Preemergence",40
same,Quackgrass plant response rating,"quackgrass; 125 g ai/ha, preemergence",80
same,"Plant response rating, Quackgrass","quackgrass; Preemergence, 31 g ai/ha",0
same,"Plant response rating, Dayflower","Virginia dayflower; 16 g ai/ha, preemergence",0
same,Dayflower plant response rating,"Virginia dayflower; 62 g ai/ha, Preemergence",0
same,Dayflower plant response rating,"Virginia dayflower; 125 g ai/ha, preemergence",100
same,"Plant response rating, Dayflower","Virginia dayflower; Preemergence, 31 g ai/ha",0
same,"Foxtail, Green plant response rating",green foxtail; [1],85
same,"Foxtail, Green plant response rating",green foxtail; [2],100
same,"Plant response rating, Foxtail, Green",green foxtail; Preemergence,85
same,"Foxtail, Green plant response rating",green foxtail; [3],100
same,"Plant response rating, Dallisgrass","dallisgrass; 16 g ai/ha, preemergence",0
same,Dallisgrass plant response rating,"dallisgrass; 62 g ai/ha, Preemergence",98
same,Dallisgrass plant response rating,"dallisgrass; 125 g ai/ha, preemergence",100
same,"Plant response rating, Dallisgrass","dallisgrass; Preemergence, 31 g ai/ha",30
same,"Plant response rating, Corn","corn; Postemergence, 125 g ai/ha",50
same,Corn plant response rating,corn; [4],60
same,Corn plant response rating,corn; [5],50
same,"Plant response rating, Corn","corn; Preemergence, 500 g ai/ha",80
same,"Plant response rating, Bermudagrass","bermudagrass; 16 g ai/ha, preemergence",0
same,Bermudagrass plant response rating,"bermudagrass; 62 g ai/ha, Preemergence",80
same,Bermudagrass plant response rating,"bermudagrass; 125 g ai/ha, preemergence",95
same,"Plant response rating, Bermudagrass","bermudagrass; Preemergence, 31 g ai/ha",30
same,"Plant response rating, Signalgrass","broadleaf signalgrass; 16 g ai/ha, preemergence",0
same,Signalgrass plant response rating,broadleaf signalgrass; preemergence,90
same,"Plant response rating, Signalgrass","broadleaf signalgrass; Preemergence, 62 g ai/ha",75
same,"Plant response rating, Signalgrass","broadleaf signalgrass; Preemergence, 31 g ai/ha",25
same,"Plant response rating, Mallow","common mallow; 16 g ai/ha, preemergence",65
same,Mallow plant response rating,"common mallow; 62 g ai/ha, Preemergence",90
same,Mallow plant response rating,"common mallow; 125 g ai/ha, preemergence",100
same,"Plant response rating, Mallow","common mallow; Preemergence, 31 g ai/ha",90
same,Ragweed plant response rating,common ragweed; [1],100
same,Ragweed plant response rating,common ragweed; [2],100
same,"Plant response rating, Ragweed",common ragweed; Preemergence,100
same,Ragweed plant response rating,common ragweed; [3],100
same,"Plant response rating, Kochia","kochia; 16 g ai/ha, preemergence",0
same,Kochia plant response rating,"kochia; 62 g ai/ha, Preemergence",75
same,Kochia plant response rating,"kochia; 125 g ai/ha, preemergence",100
same,"Plant response rating, Kochia","kochia; Preemergence, 31 g ai/ha",0
Cc1cc[n+]([O-])c(S(=O)(=O)C(Cl)c2c(C(F)(F)F)nn(C)c2OCC(F)(F)F)c1 (racemic) [Compound 37],"Plant response rating, Black Mustard","mustard; 16 g ai/ha, preemergence",0
same,Black Mustard plant response rating,"mustard; 62 g ai/ha, Preemergence",50
same,Black Mustard plant response rating,"mustard; 125 g ai/ha, preemergence",100
same,"Plant response rating, Black Mustard","mustard; Preemergence, 31 g ai/ha",15
same,"Plant response rating, Blackgrass",blackgrass; Preemergence,95
same,Blackgrass plant response rating,blackgrass; [3],100
same,"Plant response rating, Prickly Sida","prickly sida; 16 g ai/ha, preemergence",0
same,Prickly Sida plant response rating,"prickly sida; 62 g ai/ha, Preemergence",35
same,Prickly Sida plant response rating,"prickly sida; 125 g ai/ha, preemergence",90
same,"Plant response rating, Prickly Sida","prickly sida; Preemergence, 31 g ai/ha",15
same,"Plant response rating, Surinam Grass","Surinam grass; 16 g ai/ha, preemergence",0
same,Surinam Grass plant response rating,Surinam grass; preemergence,90
same,"Plant response rating, Surinam Grass","Surinam grass; Preemergence, 62 g ai/ha",60
same,"Plant response rating, Surinam Grass","Surinam grass; Preemergence, 31 g ai/ha",60
same,"Plant response rating, Quackgrass","quackgrass; 16 g ai/ha, preemergence",0
same,Quackgrass plant response rating,"quackgrass; 62 g ai/ha, Preemergence",25
same,Quackgrass plant response rating,"quackgrass; 125 g ai/ha, preemergence",70
same,"Plant response rating, Quackgrass","quackgrass; Preemergence, 31 g ai/ha",25
same,"Plant response rating, Dayflower","Virginia dayflower; 16 g ai/ha, preemergence",0
same,Dayflower plant response rating,"Virginia dayflower; 62 g ai/ha, Preemergence",100
same,Dayflower plant response rating,"Virginia dayflower; 125 g ai/ha, preemergence",100
same,"Plant response rating, Dayflower","Virginia dayflower; Preemergence, 31 g ai/ha",90
same,"Plant response rating, Foxtail, Green",green foxtail; Preemergence,0
same,"Foxtail, Green plant response rating",green foxtail; [3],100
same,"Plant response rating, Dallisgrass","dallisgrass; 16 g ai/ha, preemergence",0
same,Dallisgrass plant response rating,"dallisgrass; 62 g ai/ha, Preemergence",75
same,Dallisgrass plant response rating,"dallisgrass; 125 g ai/ha, preemergence",100
same,"Plant response rating, Dallisgrass","dallisgrass; Preemergence, 31 g ai/ha",25
same,Corn plant response rating,"corn; Postemergence, 125 g ai/ha, 0 is no effect, 100 is complete control",0
same,Corn plant response rating,corn; [4],40
same,Corn plant response rating,corn; [5],0
same,"Plant response rating, Corn","corn; Preemergence, 500 g ai/ha",30
same,"Plant response rating, Bermudagrass","bermudagrass; 16 g ai/ha, preemergence",35
same,Bermudagrass plant response rating,"bermudagrass; 62 g ai/ha, Preemergence",65
same,Bermudagrass plant response rating,"bermudagrass; 125 g ai/ha, preemergence",75
same,"Plant response rating, Bermudagrass","bermudagrass; Preemergence, 31 g ai/ha",35
same,"Plant response rating, Signalgrass","broadleaf signalgrass; 16 g ai/ha, preemergence",20
same,Signalgrass plant response rating,broadleaf signalgrass; preemergence,95
same,"Plant response rating, Signalgrass","broadleaf signalgrass; Preemergence, 62 g ai/ha",65
same,"Plant response rating, Signalgrass","broadleaf signalgrass; Preemergence, 31 g ai/ha",35
same,"Plant response rating, Mallow","common mallow; 16 g ai/ha, preemergence",0
same,Mallow plant response rating,"common mallow; 62 g ai/ha, Preemergence",0
same,Mallow plant response rating,"common mallow; 125 g ai/ha, preemergence",90
same,"Plant response rating, Mallow","common mallow; Preemergence, 31 g ai/ha",0
same,Ragweed plant response rating,common ragweed; [1],0
same,Ragweed plant response rating,common ragweed; [2],70
same,"Plant response rating, Ragweed",common ragweed; Preemergence,0
same,Ragweed plant response rating,common ragweed; [3],80
same,"Plant response rating, Kochia","kochia; 16 g ai/ha, preemergence",0
same,Kochia plant response rating,"kochia; 62 g ai/ha, Preemergence",0
same,Kochia plant response rating,"kochia; 125 g ai/ha, preemergence",0
same,"Plant response rating, Kochia","kochia; Preemergence, 31 g ai/ha",0
